Target: T1, JuvD-RhFRED (Micromonospora chalcea, UniProt A0A1Z1MZ59)
T1 sequence (A0A1Z1MZ59 1-402): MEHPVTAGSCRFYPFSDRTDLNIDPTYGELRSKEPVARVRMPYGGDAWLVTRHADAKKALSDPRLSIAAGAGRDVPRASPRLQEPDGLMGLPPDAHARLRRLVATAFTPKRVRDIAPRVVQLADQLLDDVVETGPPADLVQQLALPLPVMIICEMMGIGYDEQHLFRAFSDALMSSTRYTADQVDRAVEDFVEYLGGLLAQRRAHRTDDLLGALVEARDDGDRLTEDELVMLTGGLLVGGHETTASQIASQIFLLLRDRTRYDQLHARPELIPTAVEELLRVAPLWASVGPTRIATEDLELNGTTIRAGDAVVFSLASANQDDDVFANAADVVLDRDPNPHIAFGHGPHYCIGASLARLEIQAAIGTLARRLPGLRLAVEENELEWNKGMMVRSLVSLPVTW
Experiment: in vitro P450 oxidation
Assay type: biochemical
Details: C12-C13 epoxidation; enzyme preparation not given

## CC[C@H]1OC(=O)C[C@@H](O)[C@H](C)[C@@H](O[C@@H]2O[C@H](C)C[C@H](N(C)C)[C@H]2O)[C@@H](CC=O)C[C@@H](C)C(=O)/C=C/C(C)=C/[C@@H]1C [compound 5, M-4365 G2]
  in vitro P450 oxidation: this enzyme effectively converted each substrate to a single product
